Like-named read-outs stand apart in the source and are kept apart here.
Columns and labels:
[1] = design: method as in PMID 26765210; details: rodents; 2-h after maternal drug administration; ref [83]; cited from earlier work
[2] = Maternal plasma drug concentrations by HPLC tandem mass spectrometry at 36-weeks' gestation; details: for Δ T3-T0, change in dose-adjusted plasma concentration: mean ± SE, from baseline (T0) to post-dose 3 (T3); for Pharmacokinetic phase at the post-dose fetal assessment: reached Cmax
Source text: To investigate chronic and acute SRI effects on the fetus, SRI-treated women were asked to withhold their typical morning oral dose until ~10h00, resulting in the AM/baseline and PM fetal assessments corresponding to pre-dose and post-dose periods, respectively. To characterize concurrent SRI pharmacokinetics across the study protocol, plasma drug concentrations were quantified at baseline (pre-dose) and four time-points post-dose; details on the drug level assay and pharmacologic variables are described below. Timing for each component of this study considered the need for a sufficient antidepressant baseline (pharmacologic trough), half-life, and time-to-peak plasma levels, weighted against length of study in effort to minimize maternal discomfort/inconvenience and potential effects of diurnal variations in the fetal variables obtained.
Changes in maternal plasma drug concentration between fetal assessments were determined by analyzing blood samples from SRI-treated mothers pre-dose (T0, baseline levels; ~08h00) and at four time-points post-dose: T1 (~10h30), T2 (~12h30), T3 (~13h30), and T4 (~14h30). Serum was separated by centrifugation at 3,000 × g for 10 min, transferred to polypropylene tubes and stored at −70°C until analysis. High performance liquid chromatography tandem mass spectrometry, performed offsite (CANTEST Ltd.; Burnaby, Canada), was used to determine levels of fluoxetine, norfluoxetine, paroxetine, sertraline, citalopram, escitalopram and venlafaxine.
Plasma drug concentrations were adjusted for maternal oral dose (ng/ml·mg). To quantify the relative change in maternal SRI level between the pre- and post-dose fetal assessments, the difference in dose-adjusted plasma drug concentration between T0 and T3 was determined. Plasma concentrations for metabolites were not reported as they reflect parent drugs.

[3] = Non-compartmental pharmacokinetic analysis of maternal SRI plasma levels; type: in vivo, human; details: for AUC(0-t) / Cmax: female, human, 36-weeks' gestation, daily oral dose; for AUC(0-t) / Cmax / Tpeak: mean ± SE; for AUC(0-t): area under the curve from T0 (baseline) to last measured plasma concentration (T4), SRI-treated women; for Cmax: maximum (peak) maternal plasma drug concentration; for Tpeak: time from baseline (T0) to reach Cmax, oral dose about 1.8 h after T0
Method: Maternal SRI plasma levels were further characterized by performing a non-compartmental pharmacokinetic analysis, yielding estimates of maximum plasma drug concentration (Cmax), time-to-peak (Tpeak) and area under the curve (AUClast). Pharmacokinetic variables were calculated using the PKNCA R package ([73]).

[4] = known value the observation is said to be consistent with; no reference given; cited from earlier work
fetal HR = details: acute exposure; ref [49]; cited from earlier work

| Structure (SMILES) | Fetal citalopram exposure relative to the mother [1] | Δ T3-T0, change in dose-adjusted plasma concentration [2] [ng/ml·mg] | Pharmacokinetic phase at the post-dose fetal assessment [2] | AUC(0-t) [3] [ng·h/mL] | Cmax [3] [ng/mL] | Tpeak [3] [h] | Pharmacokinetic phase by the last blood collection (T4) [2] | Pharmacokinetic phase by the last blood collection (T4) ([2]; listed as fluoxetine) | AUClast, total observed maternal drug exposure during study protocol (rank among antidepressants) [3] | Tpeak [4] [h] | Effect on fetal HR variability (fetal HR) |
| --- | --- | --- | --- | --- | --- | --- | --- | --- | --- | --- | --- |
| CN(C)CCCC1(c2ccc(F)cc2)OCc2cc(C#N)ccc21 (stereo not shown) [Citalopram] | exceed that of the mother | 3.2 ± 1.0 | early elimination phase | 906 ± 271 | 274 ± 92 | 4.9 ± 0.14 |  |  |  |  |  |
| CNCCC(Oc1ccc(C(F)(F)F)cc1)c1ccccc1 (stereo not shown) [Fluoxetine] |  | 4.3 ± 2.5 |  | 3220 ± 1920 | 613 ± 342 | 5.8 ± 1.0 | absorption phase | still in the absorption phase | highest | 6 to 8 |  |
| Fc1ccc([C@@H]2CCNC[C@H]2COc2ccc3c(c2)OCO3)cc1 [Paroxetine] |  | 0.13 ± 0.21 | early elimination phase | 125 ± 66 | 24 ± 5.2 | 4.6 ± 0.04 |  |  | lowest |  |  |
| CN[C@H]1CC[C@@H](c2ccc(Cl)c(Cl)c2)c2ccccc21 [Sertraline] |  | 0.71 ± 0.53 | early elimination phase | 728 ± 256 | 197 ± 105 | 5.3 ± 0.18 |  |  |  |  |  |
| COc1ccc(C(CN(C)C)C2(O)CCCCC2)cc1 (stereo not shown) [Venlafaxine] |  | 0.43 ± 0.13 |  | 621 ± 314 | 163 ± 74 | 5.7 ± 0.30 | still in the absorption phase |  |  |  |  |
| CN1CCC[C@H]1c1cccnc1 [nicotine] |  |  |  |  |  |  |  |  |  |  | decreased |
